{"source": "patent US20240245668A1", "about": "“AGENT FOR TREATING OR PREVENTING GLAUCOMA INCLUDING A SULFONAMIDE COMPOUND AND ANOTHER DRUG” (SANTEN PHARMACEUTICAL CO., LTD., priority 2012, published 2024)", "key": {"[1]": {"tested_on": "monkeys with normal intraocular pressure", "experiment": "Intraocular pressure lowering effect, present compound and brimonidine concomitantly administered to monkeys", "type": "in vivo, Cynomolgus monkey", "conditions": "male cynomolgus monkeys, instillation into one eye, 0.0006 w/v % present compound solution 20 μL, ALPHAGAN P (0.15%) 20 μL", "text": "(§1) In order to study the usefulness of a combination of the present compound with an α2-receptor agonist, an intraocular pressure lowering effect when the present compound and brimonidine were concomitantly administered to experimental animals (monkeys with normal intraocular pressure) was examined.\n(§2) An intraocular pressure lowering effect when the present compound and brimonidine were concomitantly administered was examined. As comparison subjects, intraocular pressure lowering effects when the present compound or brimonidine was administered singly were also examined. As a control, the base and physiological saline were administered.\n(§3) Present compound solution: a 0.0006 w/v % present compound solution (instillation amount: 20 μL) […]\n(§4) • (1) One drop of a 0.4% oxybuprocaine hydrochloride eye drop (trade name: Benoxil (registered trademark) eye drop (0.4%)) was instilled into both eyes of each experimental animal to effect local anesthesia. • (2) Intraocular pressure was measured immediately before administering the test compound solution, and the measured intraocular pressure was defined as initial intraocular pressure. • (3) The present compound solution was instilled into one eye of each experimental animal (the other eye was not treated). […] The intraocular pressure was measured in triplicate for each eye to obtain an average of three measurements, which is shown as the result. […]"}, "[2]": {"tested_on": "monkeys with normal intraocular pressure", "experiment": "Intraocular pressure lowering effect, present compound and brinzolamide concomitantly administered to monkeys", "type": "in vivo, Cynomolgus monkey", "conditions": "male cynomolgus monkeys, instillation into one eye, 0.0006 w/v % present compound solution 20 μL, Azopt Ophthalmic Suspension (1%) 20 μL", "text": "as §1, with “a carbonic anhydrase inhibitor,” for “an α2-receptor agonist,”, “brinzolamide” for “brimonidine”\nas §2, with “brinzolamide” for “brimonidine”\nas §3, §4"}, "[3]": {"tested_on": "monkeys with normal intraocular pressure", "experiment": "Intraocular pressure lowering effect, present compound and latanoprost concomitantly administered to monkeys", "type": "in vivo, Cynomolgus monkey", "conditions": "male cynomolgus monkeys, instillation into one eye, 0.0006 w/v % present compound solution 20 μL, Xalatan eye drop (0.005%) 20 μL", "text": "In order to study the usefulness of a combination of the present compound with a prostaglandin, an intraocular pressure lowering effect when the present compound and latanoprost were concomitantly administered to experimental animals (monkeys with normal intraocular pressure) was examined.\nas §2, with “latanoprost” for “brimonidine”\nas §3\nas §4, with “The intraocular measured in” for “The intraocular pressure was measured in”"}, "[4]": {"tested_on": "rabbits with normal intraocular pressure", "experiment": "Intraocular pressure lowering effect, present compound and timolol concomitantly administered to rabbits", "type": "in vivo, Japanese white rabbit", "conditions": "male JW rabbits, instillation into one eye, 0.001 w/v % present compound solution 50 μL, Timoptol eye drop (0.5%) 50 μL", "text": "In order to study the usefulness of the combination of the present compound with a β-receptor antagonist, an intraocular pressure lowering effect when the present compound and timolol were concomitantly administered to experimental animals (rabbits with normal intraocular pressure) was examined.\nas §2, with “timolol” for “brimonidine”\nPresent compound solution: a 0.001 w/v % present compound solution (instillation amount: 50 μL) […]\nas §4"}}}
{"smiles": "Brc1c(NC2=NCCN2)ccc2nccnc12", "note": "[Brimonidine, brimonidine]", "values": [{"measurement": "Intraocular pressure lowering degree (change relative to average of control group) at 2 hours after instillation", "setting": "[1]", "value": 1.8, "unit": "mmHg"}]}
{"smiles": "CCN[C@H]1CN(CCCOC)S(=O)(=O)c2sc(S(N)(=O)=O)cc21", "note": "[Brinzolamide, brinzolamide]", "values": [{"measurement": "Intraocular pressure lowering degree (change relative to average of control group) at 4 hours after instillation", "setting": "[2]", "value": 1.6, "unit": "mmHg"}]}
{"smiles": "CC(C)OC(=O)CCC/C=C\\C[C@@H]1[C@@H](CC[C@@H](O)CCc2ccccc2)[C@H](O)C[C@@H]1O", "note": "[Latanoprost, latanoprost]", "values": [{"measurement": "Intraocular pressure lowering degree (change relative to average of control group) at 8 hours after instillation", "setting": "[3]", "value": 1.5, "unit": "mmHg"}]}
{"smiles": "CC(C)OC(=O)CNc1cccc(CN(Cc2ccc(-n3cccn3)cc2)S(=O)(=O)c2cccnc2)n1", "note": "[Present compound, isopropyl (6-{[4-(pyrazol-1-yl)benzyl](pyridin-3-ylsulfonyl)aminomethyl}pyridin-2-ylamino) acetate]", "values": [{"measurement": "Intraocular pressure lowering degree (change relative to average of control group) at 4 hours after instillation", "setting": "[4]", "value": 1.6, "unit": "mmHg"}, {"measurement": "Intraocular pressure lowering degree (change relative to average of control group) at 8 hours after instillation", "setting": "[3]", "value": 1.6, "unit": "mmHg"}, {"measurement": "Intraocular pressure lowering degree (change relative to average of control group) at 2 hours after instillation", "setting": "[1]", "value": 2.6, "unit": "mmHg"}, {"measurement": "Intraocular pressure lowering degree (change relative to average of control group) at 4 hours after instillation", "setting": "[2]", "value": 2.5, "unit": "mmHg"}]}
{"smiles": "CC(C)(C)NC[C@H](O)COc1nsnc1N1CCOCC1", "note": "[Timolol, timolol]", "values": [{"measurement": "Intraocular pressure lowering degree (change relative to average of control group) at 4 hours after instillation", "setting": "[4]", "value": 2.3, "unit": "mmHg"}]}
